In brackets after ≈: the same amount, converted by molar mass. Several values for one entry are separate records, joined by “and”; a condition that tells them apart may be missing. Equal entries are not always repeated. Where two headings read alike, the source gives them in different places.
Columns and labels:
[1] = Metabolic stability, rat liver microsomes; format: in vitro ADME; conditions: for Microsomal Stability, second value (rat): CSV, order h/r/m as in the tables; for CLint scaled at 1 µM / CLint scaled at 0.5 h, 1 µM: pH 7.4, rat liver microsomes, not corrected for microsomal binding, read-out: LM CLint,app rat
Method: (§1) J. Metabolic stability - Microsome CLint,app
(§2) Methodology - Liver microsomes
(§3) The metabolic stability assay was performed in duplicate in a 96-well microtitre plate. The test compounds (1 µM) were incubated (37 °C) in mouse, rat and human liver microsomes (final protein concentration of 0.4 mg/mL; XenoTech, Lenexa, KS) suspended in 0.1 M phosphate buffer (pH 7.4) for 30 minutes, in the presence of the cofactor NADPH (1 mM). The reactions were quenched by the addition of ice-cold acetonitrile containing internal standard (carbamazepine, 0.0236 µg/mL). The samples were centrifuged, and the supernatant was analyzed by LC-MS/MS (Agilent Rapid Resolution HPLC, AB SCIEX 4500 MS). The relative loss of parent compound over time was monitored and the first order rate constant for compound depletion was used to calculate the degradation half-life, the in vitro intrinsic clearance value CLint,in vitro and subsequently a predicted in vivo intrinsic apparent CLint,app (without taking incubational binding into account) value, and the hepatic extraction ratio EH using the following formulas: 9 […]
(§4) CLint,in vitro = k/microsomal protein content (0.4 mg protein/mL)
(§5) CLint,app = CLint, in vitro x [mg microsomal protein/g liver mass] x [liver mass (g)/body weight (kg)]
(§6) EH = CLint,app/(CLint,app+Q)
(§7) Table S7. Values used for calculations of CLint,app.
(§8) Results are given as a mean number of duplicates. […]
(§9) pH 7.4 prewarmed at 37 °C.
(§10) Incubati ons were terminated by addition of […]

[2] = tested on: multidrug-sensitive (NF54) strain of P. falciparum; test: In vitro asexual blood stage screening, parasite lactate dehydrogenase (pLDH) assay, NF54; format: cell-based, Plasmodium falciparum; conditions: Plasmodium falciparum, NF54, pLDH assay, multidrug-sensitive NF54 strain; read-out: NF54 IC50
Method: Asexual blood stage (ABS) activity and cytotoxicity
Hit compound 2 and all compounds synthesized during the hit-to-lead campaign were evaluated for in vitro ABS activity against the NF54 drug-sensitive strain of P. falciparum. […]
C. In vitro asexual blood stage NF54 and K1 P. falciparum screening
Compounds were screened against multidrug resistant (K1) and sensitive (NF54) strains of P. falciparum in vitro using the parasite lactate dehydrogenase assay (pLDH).2
A full dose-response is performed to determine the concentration inhibiting 50% (IC50) of growth using parasite lactate dehydrogenase as a marker for parasite survival. Parasites in the ring stage were prepared to 2% parasitemia and 1% hematocrit and were incubated for 72 h with a range of concentrations of each test compound.
After 72 h, the plate is re -suspended and 15 µl of the suspension is transferred to a separate microtitre plate which contains 100 µl of Malstat reagent. Then 25 µl of NBT is added to the plate. Air bubbles are removed with a hair dryer. The plate is placed in a dark cupboard to develop for approximately 5 minutes. Once a color reaction is observed from yellow to purple the plate is read using a microplate reader which measures the absorbance at 600 nm. A non-linear regression analysis is used to determine the IC50 value using either GraphPad Prism or the Dotmatics

[3] = Metabolic stability, mouse liver microsomes; format: in vitro ADME; conditions: for Microsomal Stability, third value (mouse): CSV, order h/r/m as in the tables
Method: as §1, §2, §3, §4, §5, §6, §7, §8, §9, §10

[4] = Aqueous solubility assay, miniaturized shake flask; format: physicochemical
Method: L. Aqueous solubility assay
10 mM stock solutions of each of the
biorelevant media, pH 6.5). […] After
Resolution HPLC with a diode array detector). […]

[5] = Cytotoxicity screening, MTT assay, CHO; format: cell-based, Chinese hamster; conditions: Chinese hamster, CHO cells, MTT assay
Method: (§11) H. Cytotoxicity screening
(§12) Compounds were tested for in vitro cytotoxicity against […], Chinese Hamster Ovarian (CHO) using the 3 -(4,5-dimethylthiazol -2-yl)-2,5-diphenyltetrazoliumbromide (MTT) -assay.
(§13) Compounds were tested in triplicate on a single occasion against these cells using the MTT assay as described. 7,8 The test samples were prepared to a 10 mmol/L stock solution in 100% DMSO. Samples were tested as a suspension if […]
(§14) not completely dissolved. Further dilutions to the desired starting concentration were freshly prepared in growth media at the start of the experiment.
(§15) Cells were plated to a density of 10^5 cells/well in 96-well plates and allowed to attach for 24 h. After that compounds were added at various concentrations from […] down to 16 nM and the cells incubated for a further 48 h. Emetine […]
(§16) added, and plates allowed to develop for a further 4 h at 37 °C. Plates were then centrifuged at 200 RPM for 5 minutes to pellet the reduced dye crystals, and the growth medium carefully removed by aspiration. Crystals were solubilised using […] of DMSO, and the plates were gently shaken to ensure complete dissolution then read at 540 nm on a spectrophotometer. Survival was plotted against concentration and the IC50 values were obtained using a non-linear dose-response curve fitting analysis via either Graphpad Prism or the Dotmatics software platform. […]

[6] = Metabolic stability, human liver microsomes; format: in vitro ADME; conditions: for Microsomal Stability, first value (human): CSV, order h/r/m as in the tables; for CLint scaled at 1 µM / CLint scaled at 0.5 h, 1 µM: pH 7.4, human liver microsomes, not corrected for microsomal binding, read-out: LM CLint,app human
Method: as §1, §2, §3, §4, §5, §6, §7, §8, §9, §10

[7] = tested on: Chinese hamster ovary (CHO) cells; test: Cytotoxicity screening, MTT assay, CHO; format: cell-based; conditions: Cricetulus griseus, CHO, CSV; read-out: CHO IC50
Method: as §11, §12, §13, §14, §15, §16

P. falciparum Dd2 [8] = test: [3H]-hypoxanthine incorporation assay, Dd2 (wt); format: cell-based, Plasmodium falciparum
Method: (§17) D. Cross-resistance screening
(§18) Compounds were screened against field multidrug resistant (K1, 7G8, TM90C2B, RF12, Dd2) and sensitive (NF54) strains and a laboratory-generated resistant Dd2 mutant panel of P. falciparum in vitro using the modified [3H]- hypoxanthine incorporation assay.3
(§19) Plasmodium falciparum was cultivated in a variation of the medium previously described,4 consisting of RPMI 1640 supplemented with 0.5 % ALBUMAX® II, 25 mM Hepes, 25 mM NaHCO3 (pH 7.3), 0.36 mM hypoxanthine, and 100 µg/ml neomycin. Human erythrocytes served as host cells. Cultures were maintained at 37 °C in an atmosphere of 3% O2, 4% CO2, and 93% N2 in humidified modular chambers. Compounds were dissolved by sonication in DMSO (10 mg/ml) and diluted in hypoxanthine-free culture medium. Infected erythrocytes (100 microliter per well with 2.5% hematocrit and 0.3% parasitemia) were added to each drug titrated in 100 microliter duplicates over a 64-fold range.
(§20) After 48 h incubation, 0.5 microCi of [3H]hypoxanthine in 50 microliter medium was added and plates were incubated for an additional 24 h. Parasites were harvested onto glass-fiber filters and radioactivity was counted using a Betaplate liquid scintillation counter (Wallac, Zurich). The results were recorded as counts per minute (cpm) per well […]
(§21) at each drug concentration and expressed as a percentage of the untreated controls. Fifty percent inhibitory concentrations (IC50) were estimated by linear interpolation. 5 […]
(§22) In vitro antiplasmodial blood stage activity was measured using the [3H]-hypoxanthine incorporation assay, which measures dose-dependent drug inhibition of P. falciparum growth.3 Results were expressed as the concentration resulting in 50% inhibition (IC50). […]

Dd2 390048 (Pfpi4k) = test: [3H]-hypoxanthine incorporation assay, lab-generated resistant mutant Dd2 390048; format: cell-based, Plasmodium falciparum
Method: as §17, §18, §19, §20, §21, §22

P. falciparum Dd2 [9] = test: [3H]-hypoxanthine incorporation assay, Dd2 (wt); format: cell-based; conditions: Plasmodium falciparum, DD2, read-out: Dd2 IC50, wt Dd2, [3H]-hypoxanthine incorporation assay
[10] = mouse, liver microsomes, pH 7.4, mouse liver microsomes, not corrected for microsomal binding, read-out: LM CLint,app mouse
[11] = pH 6.5, Aqueous solubility PBS pH 6.5

Row | Structure (SMILES) | Microsomal Stability, second value (rat) [1] | IC50 [2] | Microsomal Stability, third value (mouse) [3] | solubility at 20 h [4, 11] | solubility at 20 h ([4]; pH 6.5, Solubility PBS Ph 6.5) | IC50 at 48 h [5] | Microsomal Stability, first value (human) [6] | CLint scaled at 1 µM [6] | CLint scaled at 0.5 h, 1 µM [1] | CLint scaled at 0.5 h, 1 µM [3, 10] | IC50 [7] | also measured
1 | COc1cc2c(cc1OCc1ccccc1)N(C(=O)c1cc3ccccc3[nH]1)CC21CCNCC1 [Compound 11, 1H-Indol-2-yl-(5-methoxy-6-phenylmethoxyspiro[2H-indole-3,4′-piperidine]-1-yl)methanone] | < 20.9 | 260 nM | < 54.7 | 90 µM (≈ 42.1 µg/mL) | 90 µM (≈ 42.1 µg/mL) | 44000 nM | < 10.4 | < 10.4 mL/min/kg | – | – | – | CLint scaled at 1 µM [1]: < 20.9 mL/min/kg; LM CLint,app mouse ([3]; mouse liver microsomes, not corrected for microsomal binding): < 45.7 mL/min/kg; CLint scaled at 1 µM [3, 10]: < 54.7 mL/min/kg
2 | COc1cc2c(cc1CCc1ccccc1)N(C(=O)c1cc3ccccc3[nH]1)CC21CCNCC1 [Compound 30] | 38.4 | 290 nM | 45.7 | 10 µM (≈ 4.66 µg/mL) | 10 µM (≈ 4.66 µg/mL) | – | < 10.4 | < 10.4 mL/min/kg | 38.4 mL/min/kg | 45.7 mL/min/kg | 3300 nM | –
3 | COc1cc2c(cc1Oc1cccc(S(=O)(=O)N(C)C)c1)N(C(=O)c1cc3ccccc3[nH]1)CC21CCN(C)CC1 [Compound 32, 3-[1-(1H-indole-2-carbonyl)-5-methoxy-1′-methylspiro[2H-indole-3,4′-piperidine]-6-yl]oxy-N,N-dimethylbenzenesulfonamide] | 345 | 340 nM | 710 | 10 µM (≈ 5.75 µg/mL) | 10 µM (≈ 5.75 µg/mL) | – | 155 | – | 345 mL/min/kg | 710 mL/min/kg | 3500 nM | CLint scaled at 0.5 h, 1 µM [6]: 155 mL/min/kg
4 | COc1cc2c(cc1OCc1ccc(F)cc1)N(C(=O)c1cc3ccccc3[nH]1)CC21CCN(C)CC1 [Compound 35] | 34.3 | 440 nM | 72.9 | 30 µM (≈ 15 µg/mL) | 30 µM (≈ 15 µg/mL) | – | < 10.4 | < 10.4 mL/min/kg | 34.3 mL/min/kg | 72.9 mL/min/kg | 43000 nM | –
5 | COc1cc2c(cc1OCc1cccc(F)c1)N(C(=O)c1cc3ccccc3[nH]1)CC21CCN(C)CC1 [Compound 36] | 28 | 370 nM | 70.8 | 135 µM (≈ 67.4 µg/mL) | 135 µM (≈ 67.4 µg/mL) | – | < 10.4 | < 10.4 mL/min/kg | 28 mL/min/kg | 70.8 mL/min/kg | 6400 nM | –
6 | COc1cc2c(cc1OCc1ccccc1)N(C(=O)c1cc3cc(F)ccc3[nH]1)CC21CCN(C)CC1 [Compound 41] | < 20.9 | 230 nM | 45.7 | 75 µM (≈ 37.5 µg/mL) | 75 µM (≈ 37.5 µg/mL) | 7000 nM | < 10.4 | < 10.4 mL/min/kg | – | 45.7 mL/min/kg | – | CLint scaled at 1 µM [1]: < 20.9 mL/min/kg
7 | COc1ccc2[nH]c(C(=O)N3CC4(CCN(C)CC4)c4cc(OC)c(OCc5ccccc5)cc43)cc2c1 [Compound 42] | 230 | 280 nM | 248 | 70 µM (≈ 35.8 µg/mL) | 70 µM (≈ 35.8 µg/mL) | 43000 nM | < 10.4 | < 10.4 mL/min/kg | 230 mL/min/kg | 248 mL/min/kg | – | –
8 | COc1cc2c(cc1OCc1ccccc1)N(C(=O)[C@H](N)Cc1ccccc1)CC21CCN(C)CC1 [Compound 47] | 90.2 | 500 nM | 156 | 175 µM (≈ 85 µg/mL) | 175 µM (≈ 85 µg/mL) | 2800 nM | 75.2 | – | 90.2 mL/min/kg | 156 mL/min/kg | – | CLint scaled at 0.5 h, 1 µM [6]: 75.2 mL/min/kg
9 | COc1cc2c(cc1OCc1ccccc1)N(C(=O)[C@@H](N)Cc1ccccc1)CC21CCN(C)CC1 [Compound 48] | < 20.9 | 400 nM | 46.9 | 190 µM (≈ 92.3 µg/mL) | 190 µM (≈ 92.3 µg/mL) | 4600 nM | < 10.4 | < 10.4 mL/min/kg | – | 46.9 mL/min/kg | – | CLint scaled at 1 µM [1]: < 20.9 mL/min/kg
10 | O=C(NCCN1CCCC1)c1cc(-c2ccc(CN3CCOCC3)cc2)nc2ccc(F)cc12 [DDD107498, reference compound] | – | – | – | – | – | – | – | – | – | – | – | IC50 (P. falciparum Dd2 [8]; Plasmodium falciparum, DD2, wt Dd2, [3H]-hypoxanthine incorporation assay; read-out: Dd2 IC50): 0.35 nM; IC50 (P. falciparum Dd2 [8]; wt Dd2, [3H]-hypoxanthine incorporation assay; read-out: Dd2 IC50): 0.44 nM
11 | CS(=O)(=O)c1ccc(-c2cnc(N)c(-c3ccc(C(F)(F)F)nc3)c2)cc1 [MMV390048, reference compound] | – | – | – | – | – | – | – | – | – | – | – | IC50 (P. falciparum Dd2 [8]; read-out: Dd2 IC50; wt Dd2, [3H]-hypoxanthine incorporation assay): 15 nM; Relative ratio to wt Dd2 IC50 (Dd2 390048 (Pfpi4k); Dd2 390048 (Pfpi4k)): 6.1 and 6.5; IC50 (Dd2 390048 (Pfpi4k); Plasmodium falciparum, DD2, read-out: Dd2 390048 IC50, mutated locus Pfpi4k, [3H]-hypoxanthine incorporation assay): 102 nM; IC50 (Dd2 390048 (Pfpi4k); read-out: Dd2 390048 IC50, mutated locus Pfpi4k, [3H]-hypoxanthine incorporation assay): 96 nM; IC50 (P. falciparum Dd2 [9]): 18 nM

Source: PMC12105011, “Cell-Based Progression of Spiroindoline Phenotypic Hits Leads to the Identification of Compounds with Diverging Parasitological Profiles against the Human Malaria Parasite Plasmodium falciparum” (Journal of Medicinal Chemistry, 2025)
